Data taken from US20250325529A1, “INHIBITORS OF FATTY ACID BINDING PROTEINS (FABPs), METHODS OF USE AND METHODS OF MAKING” (Celloram, inc., priority 2024, published 2025).

What was measured:
MB-231 cells = assay: Proliferation assay (Incucyte confluency), MB-231; assay type: cell-based; conditions: Homo sapiens, 96 h, 4 days, read-out: IC50, inhibition of proliferation
Protocol: (§1) COS-7, MDA-MB-231, and HepG2, were cultured in Dulbecco's modified Eagle's medium (DMEM) supplemented with 10% fetal bovine serum (Invitrogen Life Sciences, Carlsbad, CA). BT-549, OVCAR5 and OVCAR8 cells were cultured in L-Glutamine containing RPMI medium supplemented with 10% fetal calf serum (Invitrogen Life Sciences, Carlsbad, CA). The primary Human Mammary Epithelial Cells (HMEC) were cultured in mammary epithelial cell complete medium (basal medium plus rH-Insulin (5 μg/mL); L-Glutamine (6 mM); Epinephrine (1 μM); Apo-Transferrin (5 μg/mL); rH-TGF-α (0.5 ng/mL); ExtractP (0.4%); Hydrocortisone Hemisuccinate (100 ng/mL)).
(§2) 2000 cells were plated in each well of 96-well plate. The next day cells were treated with compounds and incubated in Incucyte for 4 days. Images taken every 4 hours for the duration of the time were analyzed to calculate percentage of confluency in response to the treatments. Growth inhibition was calculated as 1—(percentage of viable cells out of untreated cells).

BT-549 cells = assay: Proliferation assay (Incucyte confluency), BT-549; assay type: cell-based; conditions: Homo sapiens, 96 h, 4 days, read-out: IC50, inhibition of proliferation
Protocol: as §1, §2

[1] = tested on: normal human mammary epithelial cells (HMEC); assay: Proliferation assay (Incucyte confluency), HMEC; assay type: cell-based
Protocol: as §1, §2

OVCAR8 cells = assay: Proliferation assay (Incucyte confluency), OVCAR8; assay type: cell-based; conditions: Homo sapiens, OVCAR-8, 96 h, 4 days, read-out: IC50, inhibition of OVCAR8 proliferation
Protocol: as §1, §2

OVCAR5 cells = assay: Proliferation assay (Incucyte confluency), OVCAR5; assay type: cell-based, human; conditions: 4 days
Protocol: as §1, §2

HepG2 cells = assay: Lipid uptake assay (Nile Red), in vitro liver steatosis model; assay type: cell-based
Protocol: HepG2 cells: 5000 cells were plated in 96-well plate. The next day cells were treated with tested compounds for 4 hours and then treated with 1 mM oleic acid for additional 24 hours. Cells were then stained with Nile Red and lipid content was measured using Spectra Max i3X plate reader (Molecular Devices) and quantified with the SoftMax Pro 6 software.

[2] = tested on: Salmonella typhimurium tester strain TA1535; assay: Ames test (Bacterial Reverse Mutation Test), TA1535; assay type: cell-based
Protocol: PD152 (compound 2) was tested for genotoxic and cytotoxic side effects by Ames test. The Ames test is a Bacterial Reverse Mutation Test of mutagenicity that utilizes Salmonella typhimurium tester strains TA98, TA100, TA1535, TA1537 and Escherichia coli tester strain WP2 uvrA (pKM101), both in the presence and absence of S9.
The compound PD152 was tested at 10 concentrations (0.032-1000 μg/plate) in the presence of, or absence of, the hepatic enzyme S9.
The aniline FABP4/5 inhibitor compound, 2-((2-((2,4-dichloro-5-isopropoxyphenyl)amino)-2-oxoethyl)thio)-2-methylpropanoic acid (compound “B104” as disclosed in WO2023043803A1) also was tested for genotoxic and cytotoxic side effects by Ames test. B104 was tested using the Salmonella typhimurium tester stains TA98, TA100, TA1535, and TA1537, both in the presence and absence of the hepatic enzyme S9, at 5 concentrations (1.5-64 μg/plate).

[3] = TA1535, absence of S9, 0.0312 μg/plate
[4] = TA1535, absence of S9, 0.1 μg/plate
[5] = TA1535, absence of S9, 0.316 μg/plate
[6] = TA1535, absence of S9, 1 μg/plate
[7] = TA1535, absence of S9, 3.16 μg/plate
[8] = TA1535, absence of S9, 10 μg/plate
[9] = TA1535, absence of S9, 31.6 μg/plate
[10] = TA1535, absence of S9, 100 μg/plate
[11] = TA1535, absence of S9, 316 μg/plate
[12] = TA1535, absence of S9, 1000 μg/plate
[13] = TA1535, presence of S9, 0.0312 μg/plate
[14] = TA1535, presence of S9, 0.1 μg/plate
[15] = TA1535, presence of S9, 0.316 μg/plate
[16] = TA1535, presence of S9, 1 μg/plate
[17] = TA1535, presence of S9, 3.16 μg/plate
[18] = TA1535, presence of S9, 10 μg/plate
[19] = TA1535, presence of S9, 31.6 μg/plate
[20] = TA1535, presence of S9, 100 μg/plate
[21] = TA1535, presence of S9, 316 μg/plate
[22] = TA1535, presence of S9, 1000 μg/plate

SMILES: CC(C)Oc1nc(NC(=O)CSCC(=O)O)c(Cl)cc1Cl [PD152, 2-((2-((3,5-dichloro-6-isopropoxypyridin-2-yl)amino)-2-oxoethyl)thio)acetic acid]
- IC50 (MB-231 cells): 0.603 µM
- IC50 (BT-549 cells): 1.04 µM
- Concentrations at which proliferation of HMEC cells was inhibited ([1]; HMEC cells, 4 days): > 125 µM
- IC50 ([1]; Homo sapiens, 96 h, HMEC cells, 4 days, read-out: IC50, inhibition of proliferation): 319 µM
- Fold lower efficacy in HMEC than in BT-549 cells ([1]; IC50 HMEC vs BT-549): 305 fold
- Fold lower efficacy in HMEC than in MB-231 cells ([1]; IC50 HMEC vs MB-231): 532 fold
- IC50 (OVCAR8 cells): 0.665 µM
- Inhibition of OVCAR5 proliferation (OVCAR5 cells): inhibited proliferation of the two cell lines in a dose-dependent manner
- IC50 (HepG2 cells; Homo sapiens, compound 4 h then oleic acid 1 mM 24 h, Nile Red, read-out: IC50 for inhibition of lipid uptake): 0.553 µM
- Treatment concentrations at which lipid uptake was markedly inhibited (HepG2 cells; oleic acid 1 mM): > 0.2 µM
- Fold increase [2, 3]: 1
- Mean number of revertants [2, 3]: 3
- Fold increase [2, 4]: 1
- Mean number of revertants [2, 4]: 3
- Fold increase [2, 5]: 1
- Mean number of revertants [2, 5]: 3
- Fold increase [2, 6]: 1
- Mean number of revertants [2, 6]: 3
- Fold increase [2, 7]: 1
- Mean number of revertants [2, 7]: 3
- Fold increase [2, 8]: 1
- Mean number of revertants [2, 8]: 4
- Fold increase [2, 9]: 1
- Mean number of revertants [2, 9]: 4
- Fold increase [2, 10]: 1
- Mean number of revertants [2, 10]: 4
- Fold increase [2, 11]: 1
- Mean number of revertants [2, 11]: 3
- Fold increase [2, 12]: 1
- Mean number of revertants [2, 12]: 3
- Fold increase [2, 13]: 1
- Mean number of revertants [2, 13]: 3
- Fold increase [2, 14]: 1
- Mean number of revertants [2, 14]: 4
- Fold increase [2, 15]: 1
- Mean number of revertants [2, 15]: 3
- Fold increase [2, 16]: 1
- Mean number of revertants [2, 16]: 4
- Fold increase [2, 17]: 1
- Mean number of revertants [2, 17]: 4
- Fold increase [2, 18]: 1
- Mean number of revertants [2, 18]: 4
- Fold increase [2, 19]: 1
- Mean number of revertants [2, 19]: 4
- Fold increase [2, 20]: 1
- Mean number of revertants [2, 20]: 4
- Fold increase [2, 21]: 1
- Mean number of revertants [2, 21]: 4
- Fold increase [2, 22]: 1
- Mean number of revertants [2, 22]: 4
